Literature values as cited in patent US9096579B2, “Amino-indolyl-substituted imidazolyl-pyrimidines and their use as medicaments” (Boehringer Ingelheim International GmbH, priority 2012, dated 2015).

Columns and labels:
[1] = tested on: platelet counts in patients with ITP; settings: single center open label study
[2] = tested on: atherosclerotic plaque size; settings: murine model of atherosclerosis

**Q.** For `COc1cc(Nc2ncc(F)c(Nc3ccc4c(n3)N(COP(=O)(O)O)C(=O)C(C)(C)O4)n2)cc(OC)c1OC` [R788 (R406)], which platelet counts [1] is on record?
**A.** Its platelet counts is “improved platelet counts”.

**Q.** And the atherosclerotic plaque size [2]?
**A.** Its atherosclerotic plaque size is “reduced atherosclerotic plaque size”.
